Drawing on PubChem BioAssay (NCI), this text covers GI50 and TGI for 28 molecules.

What all share (test): NCI tumour cell line growth inhibition, 48 h
Assay [1] relates to 786-0 renal.
Assay [2] relates to A498 renal.
The test system of assay [3] is CCRF-CEM leukemia.
Assay [4] concerns DMS 273 small cell lung.
Assay [5] relates to NCI-H226 lung.
Assay [6] deals with RXF 393 renal.
The test system of assay [7] is SF-295 CNS.
For assay [8], the system named is SK-MEL-5 melanoma.
In assay [9] the test system is T-47D breast.
The test system of assay [10] is HOP-18 NSCLC.

Values joined by “and” are separate entries in the source; they are usually repeats but may differ in a detail not shown here. Identical values can stand only once.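 Where inhibition never reached the appropriate level, the endpoint shown equals the highest concentration tested. Otherwise, values were interpolated linearly from a five-concentration, 48-hour dose response in 96-well plates. Here, GI50 denotes the concentration required for 50% inhibition of growth. TGI: total growth inhibition.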 A value given as a limit tells only on which side of the number the result lay.

For `CC[C@@]1(O)C(=O)OCc2c1cc1n(c2=O)Cc2cc3cc(OC)ccc3nc2-1`, the GI50 in assay [1] was 0.0159 µM; in [2], 0.0272 µM; in assay [3] it was 0.00232 µM; in [6], 0.101 µM; in [9], 0.0185 µM. For the same molecule, the TGI in assay [2] is 1.8 µM and 0.307 µM; in [4], 1.58 µM; in assay [5], 0.063 µM and 0.0968 µM and 0.0206 µM; in assay [6], 0.0828 µM and 0.561 µM; in assay [7], 0.0933 µM and 0.8 µM; in assay [8], 0.116 µM and 0.0278 µM.

Consider `CCSc1nc2sc(C)c(C)c2c(=O)n1-c1ccc(C(=O)O)cc1`, for which the TGI in [1] was above 100 µM; in [2] it was above 100 µM; in [3], above 100 µM; in assay [10], 48.6 µM; in assay [5], 86.2 µM; in [6] it was above 100 µM. Moreover, the TGI in assay [7] and in assay [8] was above 100 µM throughout.

As to `CCC(=O)OC1CCn2c1nc1c2C(=O)C(C)=C(N2CC2)C1=O` (stereo unspecified), the GI50 in [1] was 0.017 µM; in assay [3] it was 0.523 µM; in [5], 0.186 µM; in [6], 0.0107 µM; in [7] it was 0.0315 µM; in assay [8] it was 0.165 µM. Besides, the TGI in assay [2] was 0.106 µM; in assay [3] it was 3.85 µM and 21.8 µM; in assay [4] it was 0.121 µM; in assay [10], 0.228 µM; in assay [5], 0.441 µM and 0.319 µM; in assay [6], 0.026 µM and 0.111 µM. Besides, the TGI in [7] was 1.08 µM and 0.151 µM; in [8], 0.0765 µM and 0.319 µM.

With `CC(=O)OCC1OC(OC2CC3C(C)(C)C(OC(C)=O)CC[C@]3(C)C3CCC45CC4(CC[C@H]5C(C)CC(O)C4OC4(C)C)[C@]23C)C(O)C(O)C1O` (stereo partly specified), the GI50 was 3.58 µM in assay [1], 2.19 µM in assay [3] and 3.34 µM in [7]. Besides, the TGI is 10.6 µM and 14.1 µM in [1]; 10.2 µM in assay [2]; 2.3 µM and 5.04 µM in assay [3]; 5.76 µM and 4.37 µM in assay [4]; 8.91 µM and 5.96 µM in [10]; 11.6 µM in assay [5]. The TGI was 4 µM in assay [6]; 5.5 µM and 11 µM in assay [7]; 5.79 µM in assay [8].

As for `CCCCCCCCCCCCCC/C(C(=O)OC)=C(/O)C(=O)OCC`, the TGI is 38.2 µM in assay [1]; above 100 µM in assay [2]; above 100 µM in assay [3]; above 100 µM in assay [4]; 73.7 µM in assay [10]; above 100 µM in assay [5]. In addition, the values for the TGI in assay [6], in [7] and in [8] were above 100 µM, 40.9 µM and above 100 µM, respectively.

As to `FC(F)(F)c1ccc(C=NC23CC4CC(CC(C4)C2)C3)cc1`, the TGI in [1], in assay [2], in [3], in assay [4], in [5] and in [6] was above 100 µM in each case. The TGI in [7] and in assay [8] was above 100 µM throughout.

Regarding `O=C1CC2CCCCC2=C1O` (stereo unspecified), the TGI in assay [1], in assay [2], in assay [3], in assay [4], in [6] and in [7] was above 100 µM each time. The TGI in assay [8] is above 100 µM.

On to `COC(=O)C1=C(C(=O)OC)C23C=CC=CC24C(C(=O)OC)=C(C(=O)OC)C4C1C3` (stereo unspecified), for which the TGI in assay [1], in [3], in [4], in assay [6], in assay [7] and in assay [8] was above 100 µM throughout.

Turning to `NC(=O)c1csc(C2C=CC(CO)O2)n1` (stereo unspecified), the TGI in assay [1], in [2], in assay [3], in assay [4], in assay [10] and in assay [5] was above 100 µM throughout. In addition, in assay [7], the TGI was above 10 µM.

Turning to `C/C(=N\NC(=O)CC(=O)Nc1ccc(Cl)cc1)c1cc2ccccc2oc1=O`, the TGI in assay [1], in assay [3], in [4], in assay [10], in [5] and in assay [6] was above 100 µM throughout. The TGI in [7] and in assay [8] was above 100 µM throughout.

In the case of `Cn1cc2c(n1)c(N/N=C/c1ccccc1)nn1nnnc21`, the TGI in assay [1], in assay [2], in assay [3], in [4], in [10] and in assay [5] was above 100 µM throughout. For the same molecule, the TGI in assay [6], in assay [7] and in assay [8] was above 100 µM each time.

Turning to `N/N=C1\c2ccccc2C2/C(=N\N)c3ccccc3C12` (stereo unspecified), the TGI in assay [1], in assay [3], in assay [4], in assay [10], in assay [6] and in [7] was above 100 µM each time. Besides, the TGI in assay [8] is above 100 µM.

Turning to `C=CCNC1=C(C(=O)OCC)C(=O)CO1`, the TGI in assay [1], in assay [2], in assay [3], in [4], in assay [5] and in assay [6] was above 100 µM in each case. In addition, the TGI in [7] and in assay [8] was above 100 µM throughout.

For the molecule `COc1ccc(NC(=O)C(=O)NNC(=O)c2sc(NNC(C)=O)nc2C)c([N+](=O)[O-])c1`, the TGI in [1] is above 100 µM; in [2], above 100 µM; in [3] it was 61.7 µM; in assay [4], above 100 µM; in [5], above 100 µM; in assay [7], above 100 µM. This molecule also had a TGI in assay [8] above 100 µM.

For `Cc1ccc(S(=O)(=O)CNC(=S)CCCC(=S)NCS(=O)(=O)c2ccc(C)cc2)cc1`, the TGI in assay [1], in [2], in assay [3], in assay [4], in assay [5] and in assay [6] was above 100 µM throughout. Further, the TGI in assay [7] and in assay [8] was above 100 µM each time.

Take `NC(=O)N/N=C(\Cc1nc2ccc(C(=O)c3ccccc3)cc2[nH]c1=O)C(=O)Nc1ccc(Br)cc1`: the TGI in assay [1], in assay [2], in assay [3], in assay [4], in [10] and in assay [5] was above 100 µM each time. In addition, the TGI in assay [6], in assay [7] and in assay [8] was above 100 µM in each case.

`CC(=O)O[C@H]1[C@@H]2[C@@H]3[C@@H](C[C@H]1C)[C@@H](C)CO[C@@]1(C)CC/C=C(/C)C[C@@H]2O[C@@H]31`: the TGI in assay [1], in assay [2], in assay [3], in assay [4], in assay [10] and in assay [5] was above 100 µM throughout. For the same molecule, the TGI in assay [6], in [7] and in assay [8] was above 100 µM throughout.

`Cc1ccc(S(=O)(=O)N2CCC3(C(/C=C/c4ccccc4)=Nc4ccccc43)C2c2ccccc2)cc1` (stereo unspecified): the TGI in assay [1], in assay [2], in assay [3], in assay [4], in assay [5] and in [6] was above 100 µM each time. In addition, the TGI in assay [7] and in [8] was above 100 µM each time.

In the case of `N#C/C(=C/c1cccnc1)C(=O)c1ccccc1`, the TGI in assay [1], in [3], in [4], in assay [10], in assay [5] and in assay [6] was above 100 µM in each case. Further, the TGI in assay [7] and in assay [8] was above 100 µM each time.

For `O=[N+]([O-])c1ccc(NC2OCC(O)C(O)C2O)cc1` (stereo unspecified), the TGI in [1], in assay [2], in assay [3], in assay [4], in assay [5] and in [6] was above 100 µM throughout. The TGI in assay [7] and in assay [8] was above 100 µM throughout.

Consider `Cc1cc(N(CCC#N)CCC#N)ccc1/C=C(\NC(=O)/C=C/c1ccccc1)NC(=O)Nc1ccc(Cl)cc1`, for which the TGI in assay [1] is above 100 µM; in assay [2] it was above 100 µM; in assay [3], above 100 µM; in assay [4], above 100 µM; in assay [5], above 100 µM; in assay [6], 52.6 µM. Also, the TGI in assay [7] and in assay [8] was above 100 µM throughout.

For `CC1=C(C(=O)Nc2ccccc2C)C(c2ccc([N+](=O)[O-])cc2)C(C(=O)Nc2ccccc2C)=C(C)N1`, the TGI in assay [1] was above 100 µM; in assay [2], 80.5 µM; in assay [3], 90.5 µM; in assay [4] it was above 100 µM; in [10], above 100 µM; in [5] it was above 100 µM. Besides, the TGI in assay [6] was 88.2 µM; in [7] it was above 100 µM; in assay [8], above 100 µM.

Take `Cc1cc(Cc2cc(C)c(NC(=O)C(=O)C3C(=O)NC(=S)NC3=O)c(C(C)C)c2)cc(C(C)C)c1NC(=O)C(=O)C1C(=O)NC(=S)NC1=O`: the TGI in [1], in assay [2], in assay [3], in [4], in assay [10] and in assay [5] was above 100 µM throughout. Also, the TGI in [6] and in [7] was above 100 µM each time.

In the case of `CC12O[C@H](c3ccccc3)[C@H](c3ccccc3)N1C(=O)C1(C(=O)OCc3ccccc3)CC12` (stereo partly specified), the TGI in [1], in assay [2], in [3], in assay [4], in assay [5] and in [7] was above 100 µM each time. For the same molecule, in [8], the TGI was above 100 µM.

For the molecule `CC1CCCC(C(O)CC2CC(=O)N(c3ccccc3)C(=O)C2)C1=O` (stereo unspecified), the TGI in assay [1], in [2], in assay [3], in assay [4], in assay [10] and in assay [5] was above 100 µM each time. In addition, the TGI in assay [6] and in assay [7] was above 100 µM throughout.

Regarding `Nc1c(C(=O)c2cccc(OCCN3CCOCC3)c2)cnn1-c1ccc(F)cc1`, the GI50 in assay [1], in [2], in assay [3], in assay [5], in [6] and in assay [7] was above 25 µM throughout. The values for the GI50 in assay [8] and in [9] were above 25 µM and above 23.7 µM, respectively. For the same molecule, the TGI in assay [1], in [2], in assay [3], in assay [5], in assay [6] and in [7] was above 25 µM throughout. In addition, the TGI in assay [8] and in assay [9] was above 25 µM each time.

On to `CCCCCCCCOc1ccc(/C=N/Nc2cc(C)nc3ccc(Cl)cc23)cc1`, for which the GI50 in [1] is 1.86 µM; in assay [2], 1.98 µM; in [3], 2.04 µM; in [5] it was 1.7 µM; in assay [6], 1.55 µM; in [7], 1.83 µM. The results for the GI50 in assay [8] and in assay [9] were 1.73 µM and 1.92 µM, respectively. The TGI in [1] was 3.66 µM; in assay [2] it was 3.45 µM; in [3] it was 5.28 µM; in [5] it was 3.62 µM; in assay [6], 2.94 µM; in assay [7] it was 3.45 µM. Besides, the figures for the TGI in [8] and in assay [9] were 3.16 µM and 4.09 µM, respectively.

Turning to `CCOc1ccccc1NC(=O)CCc1nnc2s/c(=C\CCc3ccccc3)c(=O)n12`, the TGI in assay [1], in assay [2], in [3], in [4], in assay [5] and in assay [6] was above 100 µM in each case. Also, the TGI in assay [7] and in [8] was above 100 µM each time.
